# Source: patent US20240390407A1, “PROMOTER FOR DIFFERENTIATION INTO CARTILAGE CELL, CARTILAGE CELL PROPAGATION PROMOTER, AND CARTILAGE MATRIX PRODUCTION PROMOTER” (HOKURIKU UNIVERSITY, priority 2021, published 2024)
# Key:
# Assay type in all cases: cell-based
# [1] = test system: chondrogenic progenitor ATDC5 cells; test: Detection of glycosaminoglycan by Alcian blue staining (absorbance at 620 nm); conditions: day 24 of culture
# Experimental: (§1) Using chondrogenic progenitor ATDC5 cells, the effects of liquiritin on the differentiation of chondrogenic progenitor cells into chondrocytes, proliferation of chondrocytes, and production of cartilaginous matrix were investigated as follows.
# (§2) ATDC5 cells (obtained from RIKEN BioResource Research Center) were seeded at 1×10^4 cells/well in a microplate containing 0.5 mL of Dulbecco's modified Eagle medium (DMEM)/Ham's F-12 medium (manufactured by FUJIFILM Wako Pure Chemical Corporation), and cultured at 37° C. in the presence of 5% by volume carbon dioxide. […]
# On day 24 of culture, the cells were fixed with 95% by volume ethanol, and then stained with Alcian blue staining solution (prepared with 1% Alcian blue and 3% acetic acid aqueous solution, pH=2.5), and glycosaminoglycan was detected.
# Then, the Alcian blue dye of the stained cultured cells was solubilized with 6M guanidine hydrochloride, and the absorbance at 620 nm was measured using a plate reader (Infinite 200 PRO, manufactured by Tecan Japan Co., Ltd., for each liquiritin concentration and control, n=4). The measurement results are shown in FIG. 1 as meantstandard deviation based on relative values when the absorbance in the control is 100. […]
# [2] = test system: chondrogenic progenitor ATDC5 cells; test: Measurement of number of cells under microscope
# Experimental: Using chondrogenic progenitor ATDC5 cells, the effects of liquiritin on the differentiation of chondrogenic progenitor cells into chondrocytes, proliferation of chondrocytes, and production of cartilaginous matrix were investigated as follows. ATDC5 cells (obtained from RIKEN BioResource Research Center) were seeded at 1×10^4 cells/well in a microplate containing 0.5 mL of Dulbecco's modified Eagle medium (DMEM)/Ham's F-12 medium (manufactured by FUJIFILM Wako Pure Chemical Corporation), and cultured at 37° C. in the presence of 5% by volume carbon dioxide. […] In addition, on day 24 of culture, the cells were washed with 10 mM phosphate buffered saline (pH=7.4), the cells were detached using 0.25 (w/v) % trypsin-1 mM tetrasodium ethylenediaminetetraacetate solution (manufactured by FUJIFILM Wako Pure Chemical Corporation), the number of cells in the cell suspension was observed under an inverted culture microscope (CK40, manufactured by Olympus Corporation) (magnification=10x), and the number of cells was measured (n=4 for each). […]
# [3] = test system: chondrogenic progenitor ATDC5 cells; test: Quantification of intracellular sulfated glycosaminoglycan (dimethylmethylene blue, absorbance at 525 nm)
# Experimental: as §1, §2
# Each sample (20 μL) was blended with 200 μL of a 16 mg/L dimethylmethylene blue solution (prepared with an aqueous solution (pH=3.0) containing 40 mM glycine, 27 mM sodium chloride, and 10 mM acetic acid), and the absorbance at 525 nm was measured and sulfated glycosaminoglycan in the sample was quantified (n=4 for each). The quantification results are shown in FIG. 2 as meantstandard deviation. As regards the quantification results, an unpaired t-test was performed between each group added with liquiritin at the above-mentioned concentration and the control.
# [4] = test system: chondrogenic progenitor ATDC5 cells; test: Content of DNA in cell digestive fluid as index of cell number; conditions: day 24 of culture; at 10 μM and 20 μM significant at P<0.01 vs control (FIG. 3)
# Experimental: as §1
# ATDC5 cells (obtained from RIKEN BioResource Research Center) were seeded at 1×10^4 cells/well in a microplate containing 0.5 mL of Dulbecco's modified Eagle medium (DMEM)/Ham's F-12 medium (manufactured by FUJIFILM Wako Pure Chemical Corporation), and cultured at 37° C. in the presence of 5% by volume carbon dioxide.
# On days 3, 6, 9, 12, 15, 18 and 21 of culture, transferrin and sodium selenite, which are differentiation-inducing reagents, were each added to the aforementioned medium at final concentrations of 10 μg/mL and 30 nM, respectively, and further, the medium was replaced with a medium to which liquiritin was added at each final concentration of 5 μM, 10 μM, or 20 μM, and the culture was continued.
# The case of same treatment without adding liquiritin (liquiritin concentration=0 μM) was used as a control. […]
# The content of DNA in the above-mentioned sample was measured using a DNA quantification kit (“DNA Assay Kit”, manufactured by Cosmo Bio Company, Limited) (n=4 for each) and used as an index of cell number. […]
structure (smiles),measurement,setting,value
"O=C1C[C@@H](c2ccc(O[C@@H]3O[C@H](CO)[C@@H](O)[C@H](O)[C@H]3O)cc2)Oc2cc(O)ccc21 [liquiritin, (2S)-2,3-dihydro-7-hydroxy-2-[4-(β-D-glucopyranosyloxy)phenyl]-4H-1-benzopyran-4-one]",absorbance at 620 nm of solubilized Alcian blue dye compared to the control,"[1]; 20 μM liquiritin, P<0.05 (FIG. 1)",significant increase
same,glycosaminoglycan stained with Alcian blue in cultured cells,"[1]; not less than 10 μM liquiritin, vs control (FIG. 1)",increased
same,cell number on day 24 of culture,[2]; at 10 μM and 20 μM significant at P<0.05 vs control (FIG. 4),increased with the addition concentration
same,cytotoxicity,"[2]; concentration range 10 μM to 20 μM, ATDC5 cells",does not exhibit cytotoxicity
same,amount of sulfated glycosaminoglycan contained in cell digestive fluid,"[3]; 5 μM to 20 μM liquiritin, day 24 of culture, P<0.01 vs control (FIG. 2)",significant increase
same,concentration promoting production of glycosaminoglycan by chondrocytes (as low as),"[3]; ATDC5 cells, conclusion from results",5 µM
same,content of DNA in the cell digestive fluid (index of cell number),[4],increased with the addition concentration
